Measured values as given in patent publication US10988485B2 (Amgen Inc., priority 2018, dated 2021).
Where two headings read alike, the source gives them in different places.

What was measured:
[1] = target: GDP-bound KRAS protein (aa 1-169), containing both G12C and C118A amino acid substitutions (Homo sapiens, UniProt P01116, C118A/G12C); experiment: Coupled Nucleotide Exchange Assay (SOS-mediated nucleotide exchange, AlphaScreen); assay type: biochemical; conditions: compound pre-incubation either 5 min or 2 hours (not stated per compound); SOS and GTP added, cRAF AlphaScreen read-out
Chain of GDP-bound KRAS protein (aa 1-169), containing both G12C and C118A amino acid substitutions (P01116 1-169 isoform P01116-2 G12C/C118A): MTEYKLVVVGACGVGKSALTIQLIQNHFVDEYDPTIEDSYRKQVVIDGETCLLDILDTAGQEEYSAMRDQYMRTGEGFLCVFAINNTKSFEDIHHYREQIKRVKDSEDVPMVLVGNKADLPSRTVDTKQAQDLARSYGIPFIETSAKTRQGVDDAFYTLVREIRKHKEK
Method: (§1) For compounds in Table 6, the following assay conditions were employed:
Coupled Nucleotide Exchange Assay: Purified GDP-bound KRAS protein (aa 1-169), containing both G12C and C118A amino acid substitutions and an N-terminal His-tag, was pre-incubated in assay buffer (25 mM HEPES pH 7.4, 10 mM MgCl2, and 0.01% Triton X-100) with a compound dose-response titration for either 5 min or 2 hours (see Table 15). Following compound pre-incubation, purified SOS protein (aa 564-1049) and GTP (Roche 10106399001) were added to the assay wells and incubated for an additional 30 min (for 5 min compound pre-incubation) or 1 hour (for 2 hour compound pre-incubation). To determine the extent of inhibition of SOS-mediated nucleotide exchange, purified GST-tagged cRAF (aa 1-149), nickel chelate AlphaLISA acceptor beads (PerkinElmer AL108R), and AlphaScreen glutathione donor beads (PerkinElmer 6765302) were added to the assay wells and incubated for 10 minutes. The assay plates were then read on a PerkinElmer EnVision Multilabel Reader, using AlphaScreen® technology, and data were analyzed using a 4-parameter logistic model to calculate IC50 values.

[2] = system: Phosphorylation of ERK1/2 in MIA PaCa-2 cells; experiment: Phospho-ERK1/2 MSD Assay; assay type: cell-based; conditions: compound 2 or 4 hours, then 10 ng/mL EGF for 10 min, read-out: p-ERK IC50 (MIA-PaCa-2) (converted)
Method: as §1
Phospho-ERK1/2 MSD Assay: MIA PaCa-2 (ATCC® CRL-1420™) cells were cultured in RPMI 1640 Medium (ThermoFisher Scientific 11875093) containing 10% fetal bovine serum (ThermoFisher Scientific 16000044) and 1× penicillin-streptomycin-glutamine (ThermoFisher Scientific 10378016). Sixteen hours prior to compound treatment, MIA PaCa-2 cells were seeded in 96-well cell culture plates at a density of 25,000 cells/well and incubated at 37° C., 5% CO2. A compound dose-response titration was diluted in growth media, added to appropriate wells of a cell culture plate, and then incubated at 37° C., 5% CO2 for 2 or 4 hours. Following compound treatment, cells were stimulated with 10 ng/mL EGF (Roche 11376454001) for 10 min, washed with ice-cold Dulbecco's phosphate-buffered saline, no Ca^2+ or Mg^2+ (ThermoFisher Scientific 14190144), and then lysed in RIPA buffer (50 mM Tris-HCl pH 7.5, 1% Igepal, 0.5% sodium deoxycholate, 150 mM NaCl, and 0.5% sodium dodecyl sulfate) containing protease inhibitors (Roche 4693132001) and phosphatase inhibitors (Roche 4906837001). Phosphorylation of ERK1/2 in compound-treated lysates was assayed using Phospho-ERK1/2 Whole Cell Lysate kits (Meso Scale Discovery K151DWD) according to the manufacturer's protocol. Assay plates were read on a Meso Scale Discovery Sector imager 6000, and data were analyzed using a 4-parameter logistic model to calculate IC50 values.

[3] = Homo sapiens, MIA PaCa-2, MIA PaCa-2 cells

| Structure (SMILES) | IC50 [1] [µM] | IC50 ([2]; MIA PaCa-2 cells) [µM] | IC50 [2, 3] [µM] |
| --- | --- | --- | --- |
| C=CC(=O)N1C[C@H](C)N(C2=NS(=O)(=O)N(c3c(C)cnn3C(C)C)c3nc(-c4ccccc4F)c(Cl)cc32)C[C@H]1C (single isomer, unassigned) [Example 1-11-2] | 0.15 | 0.33 |  |
| C=CC(=O)N1C[C@H](C)N(C2=NS(=O)(=O)N(c3c(C)ccnc3C(C)C)c3nc(-c4ccccc4C)c(Cl)cc32)C[C@H]1C (single isomer, unassigned) [Example 1-12-1] | 0.22 |  | 0.29 |
| C=CC(=O)N1CCN(C2=NS(=O)(=O)N(c3c(C)ccnc3C(C)C)c3nc(-c4ccccc4F)c(Cl)cc32)[C@@H](C)C1 (single isomer, unassigned) [Example 2-2-1] | 0.24 | 0.27 |  |
| C=CC(=O)N1CCN(C2=NS(=O)(=O)N(c3c(C)ccnc3C(C)C)c3nc(-c4ccccc4F)c(Cl)cc32)[C@@H](C)C1 (single isomer, unassigned) [Example 2-2-2] | 2.98 | 1.52 |  |

Results, then the compound that gave them:

| IC50 [1] [µM] | IC50 ([2]; MIA PaCa-2 cells) [µM] | IC50 [2, 3] [µM] | Structure (SMILES) |
| --- | --- | --- | --- |
|  | 0.34 |  | C=CC(=O)N1C[C@H](C)N(C2=NS(=O)(=O)N(c3ccccc3C(C)(C)C)c3nc(-c4ccccc4F)c(Cl)cc32)C[C@H]1C [Example 1-1] |
| 0.15 |  | 0.27 | C=CC(=O)N1CCN(C2=NS(=O)(=O)N(c3ccccc3C(C)C)c3nc(-c4c(O)cccc4F)c(Cl)cc32)[C@@H](C)C1 [Example 1-2, 1-((3S)-4-(6-chloro-7-(2-fluoro-6-hydroxyphenyl)-2,2-dioxido-1-(2-(2-propanyl)phenyl)-1H-pyrido[2,3-c][1,2,6]thiadiazin-4-yl)-3-methyl-1-piperazinyl)-2-propen-1-one] |
| 0.06 |  | 0.07 | C=CC(=O)N1CCN(C2=NS(=O)(=O)N(c3ccccc3C(C)C)c3nc(-c4c(N)cccc4F)c(Cl)cc32)[C@@H](C)C1 [Example 1-3, 1-((3S)-4-(7-(2-amino-6-fluorophenyl)-6-chloro-2,2-dioxido-1-(2-(2-propanyl)phenyl)-1H-pyrido[2,3-c][1,2,6]thiadiazin-4-yl)-3-methyl-1-piperazinyl)-2-propen-1-one] |
| 0.17 |  | 0.16 | C=CC(=O)N1C[C@H](C)N(C2=NS(=O)(=O)N(c3ccccc3C(C)C)c3nc(-c4c(O)cccc4F)c(Cl)cc32)C[C@H]1C [Example 1-4, 1-((2R,5S)-4-(6-chloro-7-(2-fluoro-6-hydroxyphenyl)-2,2-dioxido-1-(2-(2-propanyl)phenyl)-1H-pyrido[2,3-c][1,2,6]thiadiazin-4-yl)-2,5-dimethyl-1-piperazinyl)-2-propen-1-one] |
| 0.10 |  | 0.11 | C=CC(=O)N1C[C@H](C)N(C2=NS(=O)(=O)N(c3scnc3C(C)C)c3nc(-c4c(O)cccc4F)c(Cl)cc32)C[C@H]1C [Example 1-5, 1-((2R,5S)-4-(6-chloro-7-(2-fluoro-6-hydroxyphenyl)-2,2-dioxido-1-(4-(2-propanyl)-1,3-thiazol-5-yl)-1H-pyrido[2,3-c][1,2,6]thiadiazin-4-yl)-2,5-dimethyl-1-piperazinyl)-2-propen-1-one] |
| 0.19 |  | 0.18 | C=CC(=O)N1CCN(C2=NS(=O)(=O)N(c3ccccc3C(C)C)c3nc(-c4ccccc4S(C)(=O)=O)c(Cl)cc32)[C@@H](C)C1 [Example 1-9, 1-((3S)-4-(6-chloro-7-(2-(methylsulfonyl)phenyl)-2,2-dioxido-1-(2-(2-propanyl)phenyl)-1H-pyrido[2,3-c][1,2,6]thiadiazin-4-yl)-3-methyl-1-piperazinyl)-2-propen-1-one] |
| 1.46 |  |  | C=CC(=O)N1C[C@H](C)N(C2=NS(=O)(=O)N(c3c(C)cc(CN(C)C)cc3C(C)C)c3nc(-c4c(N)cccc4F)c(Cl)cc32)C[C@H]1C [Example 8-2, 1-((2R,5S)-4-(7-(2-amino-6-fluorophenyl)-6-chloro-1-(4-((dimethylamino)methyl)-2-methyl-6-(2-propanyl)phenyl)-2,2-dioxido-1H-pyrido[2,3-c][1,2,6]thiadiazin-4-yl)-2,5-dimethyl-1-piperazinyl)-2-propen-1-one] |
